These results are taken from patent US12540141B2, “Spiropyrrolidine derived antiviral agents” (priority 2020, dated 2026).

The EC50 is the concentration needed to bring the measured effect to its halfway point. As a reminder, the IC50 is the concentration that gives 50% inhibition. Read a low IC50 as greater potency in that assay.

Experiment [1] concerns 229E human corona virus (hCoV). Briefly: 229E Live Virus Assay (MRC-5 cells, CPE read by ATPlite). The format is cell-based, hCoV-229E. A general note: ATP-based viability assays read luminescence as a measure of living cells.
For experiment [2], the target named is SARS-CoV-2 3CL-protease (Severe acute respiratory syndrome coronavirus 2, UniProt P0DTD1). Briefly: SARS-CoV-2 3C-Like (3CL) Protease Fluorescence Assay (FRET). The class given is biochemical. The note with it: SARS-CoV-2 3CL-protease 10 nM, 30 min preincubation at RT, substrate 40 μM.
The mark [3] stands for this setting: Human coronavirus 229E, MRC5, hCoV-229E live virus in MRC-5 cells, MOI 0.05, CPE by ATPlite, run in duplicate.

Like-named read-outs stand apart in the source and are kept apart here.

Consider `COc1cc(Cl)cc(C(=O)N(C)[C@@H](CC(C)C)C(=O)N2C[C@]3(C[C@H]2C#N)C(=O)Nc2ccccc23)c1` [Example 180], for which the concentration for a half-maximal effect (EC50) in experiment [1] (setting [3]) is < 100 nM. Also, in experiment [2], the IC50 was < 100 nM.
For `CC(C)C[C@@H](C(=O)N1C[C@]2(C[C@H]1C#N)C(=O)Nc1ccccc12)N(C)C(=O)c1ccc2ccc(Br)cc2c1` [Example 230], the EC50 in experiment [1] (setting [3]) is < 100 nM. The compound further displayed a concentration for half-maximal inhibition (IC50) in experiment [2] of 100 to 1000 nM.
Consider `CC(C)C[C@@H](C(=O)N1C[C@]2(C[C@H]1C#N)C(=O)Nc1ccccc12)N(C)C(=O)c1ccc(-c2ccccc2)cn1` [Example 232], for which, in experiment [1] (setting [3]), the concentration giving a half-maximal response (EC50) is < 100 nM. In experiment [2], this compound showed a concentration for half-maximal inhibition (IC50) of 100 to 1000 nM.
With `COc1cc(C(=O)N(C)[C@@H](CC(C)C)C(=O)N2C[C@]3(C[C@H]2C#N)C(=O)Nc2ccccc23)cn2cc(C(F)F)nc12` [Example 255], in experiment [1] (hCoV-229E live virus in MRC-5 cells, MOI 0.05, CPE by ATPlite, run in duplicate), the EC50 was < 100 nM.
On to `CC(C)C[C@@H](C(=O)N1C[C@]2(C[C@H]1C#N)C(=O)Nc1ccccc12)N(C)C(=O)c1cc(OC2CC2)c2c(c1)=NC(C1CC1)N=2` (stereo partly shown) [Example 307], for which the concentration for a half-maximal effect (EC50) in experiment [1] (setting [3]) lay within 100 to 1000 nM. Also, in experiment [2], the IC50 was 100 to 1000 nM.
`COc1cc(C(=O)N(C)[C@@H](CC(C)C)C(=O)N2C[C@]3(C[C@H]2C#N)C(=O)Nc2ccccc23)cc2c1=NC(C1CC1)N=2` (stereo partly shown) [Example 308] registered an EC50 in experiment [1] (setting [3]) of 100 to 1000 nM. Also, the IC50 in experiment [2] is < 100 nM.
For the compound `CN(C(=O)[C@@H](O)c1ccc(F)cc1)[C@@H](CC1CC1)C(=O)N1C[C@]2(C[C@H]1C#N)C(=O)Nc1ccccc12` [Example 414, (S)—N—((S)-1-((3R,5′S)-5′-cyano-2-oxospiro[indoline-3,3′-pyrrolidin]-1′-yl)-3-cyclopropyl-1-oxopropan-2-yl)-2-(4-fluorophenyl)-2-hydroxy-N-methyl acetamide], in experiment [1] (setting [3]), the EC50 was < 100 nM. In addition, in experiment [2], the half-inhibitory concentration (IC50) was < 100 nM.
As for `CN(C(=O)[C@H](O)c1ccc(F)cc1)[C@@H](CC1CC1)C(=O)N1C[C@]2(C[C@H]1C#N)C(=O)Nc1ccccc12` [Example 415], the 50% effective concentration (EC50) in experiment [1] (setting [3]) was < 100 nM. In addition, in experiment [2], the IC50 is < 100 nM.
With `[2H]C([2H])([2H])N(C(=O)[C@H](O)c1ccc(F)cc1)[C@@H](CC1CC1)C(=O)N1C[C@]2(C[C@H]1C#N)C(=O)Nc1ccccc12` [Example 422], the EC50 in experiment [1] (setting [3]) is < 100 nM. The IC50 in experiment [2] was < 100 nM.
`C[C@H](OC(=O)N[C@@H](CC(C)(C)C)C(=O)N1C[C@]2(C[C@H]1C#N)C(=O)Nc1ccc(Cl)cc12)c1ccc(F)cc1` [Example 494] came in with an EC50 in experiment [1] of 100 to 1000 nM.
`N#C[C@@H]1C[C@@]2(CN1C(=O)[C@H](CC1CC1)NC(=O)c1cccc(OC(F)(F)F)c1)C(=O)Nc1ccc(Cl)cc12` [Example 520]: the concentration for half-maximal inhibition (IC50) in experiment [2] is < 100 nM.
`Cc1c(C(=O)N[C@@H](CC2CC2)C(=O)N2C[C@]3(C[C@H]2C#N)C(=O)Nc2ccc(F)cc23)sc2cccc(F)c12` [Example 521]: the concentration for half-maximal inhibition (IC50) in experiment [2] was < 100 nM.
Still for that read-out and setting: the result for `N#C[C@@H]1C[C@@]2(CN1C(=O)[C@H](CC1CC1)NC(=O)c1c(Cl)cccc1Cl)C(=O)Nc1ccc(F)cc12` [Example 522] reads 100 to 1000 nM; that for `C[C@H](OC(=O)N[C@@H](CC(C)(C)C)C(=O)N1C[C@]2(C[C@H]1C#N)C(=O)Nc1ccc(F)cc12)c1ccc(F)cc1` [Example 524], < 100 nM.
On the same count and under the same terms, for `N#C[C@@H]1C[C@@]2(CN1C(=O)[C@H](CC1CC1)NC(=O)c1c(Cl)cccc1Cl)C(=O)Nc1ccc(Cl)cc12` [Example 525] the value was < 100 nM.
Still for that read-out and setting: the result for `N#C[C@@H]1C[C@@]2(CN1C(=O)[C@H](CC1CC1)NC(=O)c1cccc(OC(F)(F)F)c1)C(=O)Nc1ccc(F)cc12` [Example 526] reads < 100 nM; that for `CC(C)C[C@H](NC(=O)O[C@@H](c1ccccc1)C(F)(F)F)C(=O)N1C[C@]2(C[C@H]1C#N)C(=O)Nc1ccc(F)cc12` [Example 527, (S)-2,2,2-trifluoro-1-phenylethyl ((S)-1-((3R,5′S)-5′-cyano-5-fluoro-2-oxospiro[indoline-3,3′-pyrrolidin]-1′-yl)-4-methyl-1-oxopentan-2-yl)carbamate], < 100 nM; that for `CC(C)C[C@H](NC(=O)c1cc2c(F)cccc2[nH]1)C(=O)N1C[C@]2(C[C@H]1C#N)C(=O)Nc1cccc(Cl)c12` [Example 528], 100 to 1000 nM.
Regarding `Cc1cccc2c1[C@@]1(C[C@@H](C#N)N(C(=O)[C@H](CC(C)C)NC(=O)c3cc4c(F)cccc4[nH]3)C1)C(=O)N2` [Example 529], the half-maximal inhibitory concentration (IC50) in experiment [2] was 100 to 1000 nM.
Same read-out and setting: the result for `CC(C)C[C@H](NC(=O)c1cc2c(F)cccc2[nH]1)C(=O)N1C[C@]2(C[C@H]1C#N)C(=O)Nc1cc(F)ccc12` [Example 530] reads < 100 nM; that for `CC(C)C[C@H](NC(=O)c1cc2c(F)cccc2[nH]1)C(=O)N1C[C@]2(C[C@H]1C#N)C(=O)Nc1cc(Cl)ccc12` [Example 531], < 100 nM; that for `CC(C)C[C@H](NC(=O)c1cc2c(F)cccc2[nH]1)C(=O)N1C[C@]2(C[C@H]1C#N)C(=O)Nc1c(Cl)cccc12` [Example 533], < 100 nM.
Same read-out and setting: for `Cc1cccc2c1NC(=O)[C@]21C[C@@H](C#N)N(C(=O)[C@H](CC(C)C)NC(=O)c2cc3c(F)cccc3[nH]2)C1` [Example 534] the value was < 100 nM; for `C=CC(=O)N(C)[C@@H](CC(C)(C)F)C(=O)N1C[C@]2(C[C@H]1C#N)C(=O)Nc1ccccc12` [Example 535, N—((S)-1-((3R,5′S)-5′-cyano-2-oxospiro[indoline-3,3′-pyrrolidin]-1′-yl)-4-fluoro-4-methyl-1-oxopentan-2-yl)-N-methylacrylamide], 100 to 1000 nM; for `CN(C(=O)CN1CCOCC1)[C@@H](CC(C)(C)F)C(=O)N1C[C@]2(C[C@H]1C#N)C(=O)Nc1ccccc12` [Example 536], 100 to 1000 nM.
The same measure, in the same setting: for `CN(C(=O)CCN1CCOCC1)[C@@H](CC(C)(C)F)C(=O)N1C[C@]2(C[C@H]1C#N)C(=O)Nc1ccccc12` [Example 537] the value was < 100 nM; for `CN(C(=O)CCCN1CCOCC1)[C@@H](CC(C)(C)F)C(=O)N1C[C@]2(C[C@H]1C#N)C(=O)Nc1ccccc12` [Example 538], > 1000 nM; for `CN(C)CCC(=O)N(C)[C@@H](CC(C)(C)F)C(=O)N1C[C@]2(C[C@H]1C#N)C(=O)Nc1ccccc12` [Example 539, N—((S)-1-((3R,5′S)-5′-cyano-2-oxospiro[indoline-3,3′-pyrrolidin]-1′-yl)-4-fluoro-4-methyl-1-oxopentan-2-yl)-3-(dimethylamino)-N-methylpropanamide], < 100 nM.
Consider `CN(C(=O)CCN1CCC1)[C@@H](CC(C)(C)F)C(=O)N1C[C@]2(C[C@H]1C#N)C(=O)Nc1ccccc12` [Example 540], for which, in experiment [2], the half-maximal inhibitory concentration (IC50) is < 100 nM.
On the same count and under the same terms, the result for `CN(C(=O)CCN1CCCC1)[C@@H](CC(C)(C)F)C(=O)N1C[C@]2(C[C@H]1C#N)C(=O)Nc1ccccc12` [Example 541] reads < 100 nM.
On the same count and under the same terms, the result for `CN(C(=O)CCN1CCCCC1)[C@@H](CC(C)(C)F)C(=O)N1C[C@]2(C[C@H]1C#N)C(=O)Nc1ccccc12` [Example 542] reads < 100 nM; that for `CNCCC(=O)N(C)[C@@H](CC(C)(C)F)C(=O)N1C[C@]2(C[C@H]1C#N)C(=O)Nc1ccccc12` [Example 543], < 100 nM; that for `CCN(CC)CCC(=O)N(C)[C@@H](CC(C)(C)F)C(=O)N1C[C@]2(C[C@H]1C#N)C(=O)Nc1ccccc12` [Example 544], < 100 nM.
Still for that read-out and setting: the result for `C[C@@H]1CCC[C@H](C)N1CCC(=O)N(C)[C@@H](CC(C)(C)F)C(=O)N1C[C@]2(C[C@H]1C#N)C(=O)Nc1ccccc12` [Example 545] reads < 100 nM; that for `C[C@@H]1COC[C@H](C)N1CCC(=O)N(C)[C@@H](CC(C)(C)F)C(=O)N1C[C@]2(C[C@H]1C#N)C(=O)Nc1ccccc12` [Example 546], < 100 nM; that for `CN(C(=O)CCNc1nccs1)[C@@H](CC(C)(C)F)C(=O)N1C[C@]2(C[C@H]1C#N)C(=O)Nc1ccccc12` [Example 547], < 100 nM.
`N#C[C@@H]1C[C@@]2(CN1C(=O)[C@H](CN1CCCC1=O)NC(=O)OCc1ccccc1)C(=O)Nc1ccccc12` [Example 548, benzyl ((S)-1-((3R,5′S)-5′-cyano-2-oxospiro[indoline-3,3′-pyrrolidin]-1′-yl)-1-oxo-3-(2-oxopyrrolidin-1-yl)propan-2-yl)carbamate] gave an IC50 in experiment [2] of 100 to 1000 nM.
Same read-out and setting: for `CC(C)C[C@@H](C(=O)N1C[C@]2(C[C@H]1C#N)C(=O)Nc1ncccc12)N(C)C(=O)c1cc2c(F)cc(F)cc2[nH]1` [Example 549] the value was < 100 nM.
Consider `CC(C)C[C@@H](C(=O)N1C[C@]2(C[C@H]1C#N)C(=O)Nc1ncccc12)N(C)C(=O)c1cc2c(F)cc(F)c(F)c2[nH]1` [Example 550], for which the 50% inhibitory concentration (IC50) in experiment [2] was < 100 nM.
The same measure, in the same setting: the result for `CN(C(=O)c1cc2c(F)cc(F)c(F)c2[nH]1)[C@@H](CC(C)(C)F)C(=O)N1C[C@]2(C[C@H]1C#N)C(=O)Nc1ncccc12` [Example 551] reads < 100 nM.
On the same count and under the same terms, the result for `CN(C(=O)c1cc2c(F)cc(F)c(F)c2[nH]1)[C@@H](CC(C)(C)F)C(=O)N1C[C@]2(C[C@H]1C#N)C(=O)Nc1cccnc12` [Example 552] reads < 100 nM.
